Assays:
human MMP13 = human MMP13 (Homo sapiens (Human), UniProt P45452); settings: read-out: hMMP-13 potency IC50
Protocol: Human MMP13 is preactivated by incubated the enzyme in the same buffer complemented with 1 mM freshly prepared p-Aminophenylmercuric acetate (AMPA) for 1 hour at 37° C.

human TACE = human TACE (Homo sapiens (Human), UniProt P78536); settings: read-out: TACE potency IC50
human ADAMTS-5 = human ADAMTS-5 (Homo sapiens (Human), UniProt Q9UNA0); settings: read-out: hADAMTS-5 potency IC50
human ADAMTS-5, sequence (Q9UNA0 262-930): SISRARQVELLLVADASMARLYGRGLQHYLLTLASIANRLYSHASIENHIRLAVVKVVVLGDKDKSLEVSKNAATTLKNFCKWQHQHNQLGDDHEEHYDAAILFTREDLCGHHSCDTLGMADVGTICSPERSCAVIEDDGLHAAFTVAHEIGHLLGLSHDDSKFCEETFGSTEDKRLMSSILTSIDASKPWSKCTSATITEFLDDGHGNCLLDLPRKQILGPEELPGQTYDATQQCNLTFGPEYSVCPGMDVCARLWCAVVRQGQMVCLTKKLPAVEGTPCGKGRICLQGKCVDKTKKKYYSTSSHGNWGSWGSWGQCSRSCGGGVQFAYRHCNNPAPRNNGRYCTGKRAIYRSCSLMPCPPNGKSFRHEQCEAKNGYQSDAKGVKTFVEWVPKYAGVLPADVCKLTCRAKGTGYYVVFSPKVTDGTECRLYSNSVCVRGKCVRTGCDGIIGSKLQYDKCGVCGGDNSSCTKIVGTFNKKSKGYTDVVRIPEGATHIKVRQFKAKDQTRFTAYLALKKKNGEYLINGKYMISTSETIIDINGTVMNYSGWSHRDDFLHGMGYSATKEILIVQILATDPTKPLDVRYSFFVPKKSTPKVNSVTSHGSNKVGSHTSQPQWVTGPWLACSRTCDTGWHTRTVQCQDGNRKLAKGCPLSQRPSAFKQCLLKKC
Protocol: Finally, the fluorescence is read on the Envision (Perkin Elmer) after an incubation of 90 min at 37° C.

human TACE, sequence (P78536 whole entry, looked up, change not shown): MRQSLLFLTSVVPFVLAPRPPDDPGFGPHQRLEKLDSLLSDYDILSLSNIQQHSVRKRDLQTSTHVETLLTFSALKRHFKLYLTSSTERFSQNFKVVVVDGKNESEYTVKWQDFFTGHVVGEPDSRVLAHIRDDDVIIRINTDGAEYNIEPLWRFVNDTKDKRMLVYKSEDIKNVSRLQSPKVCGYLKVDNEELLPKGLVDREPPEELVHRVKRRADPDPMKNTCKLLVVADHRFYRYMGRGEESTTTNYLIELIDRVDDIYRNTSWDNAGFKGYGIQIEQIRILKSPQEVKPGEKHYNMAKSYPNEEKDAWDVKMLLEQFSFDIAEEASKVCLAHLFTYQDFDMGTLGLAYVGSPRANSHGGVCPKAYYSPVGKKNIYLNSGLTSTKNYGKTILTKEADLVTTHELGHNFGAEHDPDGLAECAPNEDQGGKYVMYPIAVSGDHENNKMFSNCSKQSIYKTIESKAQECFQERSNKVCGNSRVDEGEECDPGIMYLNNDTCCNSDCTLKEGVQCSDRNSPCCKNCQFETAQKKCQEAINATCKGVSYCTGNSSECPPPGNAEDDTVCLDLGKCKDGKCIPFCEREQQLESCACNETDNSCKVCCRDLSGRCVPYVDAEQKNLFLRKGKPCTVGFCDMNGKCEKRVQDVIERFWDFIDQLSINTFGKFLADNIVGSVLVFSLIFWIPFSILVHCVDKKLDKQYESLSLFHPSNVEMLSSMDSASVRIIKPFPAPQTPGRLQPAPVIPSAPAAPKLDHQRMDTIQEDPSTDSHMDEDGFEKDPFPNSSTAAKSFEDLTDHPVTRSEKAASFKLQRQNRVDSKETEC

SMILES | IC50 (human MMP13) [nM] | IC50 (human TACE) [nM] | IC50 (human ADAMTS-5) [nM]
CN(C)Cc1ccc(C2(CCC(=O)N3CCN(c4cccc(Cl)c4)CC3)NC(=O)NC2=O)cc1 (centres unmarked) [compound 83, 5-[3-[4-(3-chlorophenyl)piperazin-1-yl]-3-oxo-propyl]-5-[4-(dimethylaminomethyl)phenyl]imidazolidine-2,4-dione] | > 4000 | 2490 | 
CN(C)CC1(CCC(=O)N2CCN(c3cccc(Cl)c3)CC2)NC(=O)NC1=O (centres unmarked) [compound 118, 5-[3-[4-(3-chlorophenyl)piperazin-1-yl]-3-oxo-propyl]-5-(dimethylaminomethyl)imidazolidine-2,4-dione] | > 20000 | > 4000 | 
Cc1ccc(Cl)cc1N1CCN(C(=O)CCC2(CN(C)C)NC(=O)NC2=O)CC1 (centres unmarked) [compound 120, 5-[3-[4-(5-chloro-2-methyl-phenyl)piperazin-1-yl]-3-oxo-propyl]-5-(dimethylaminomethyl)imidazolidine-2,4-dione] | > 20000 | > 4000 | 
CCC1(CCC(=O)N2CCN(c3cccc(Cl)c3)CC2)NC(=O)NC1=O (centres unmarked) [compound 122, 5-[3-[4-(3-chlorophenyl)piperazin-1-yl]-3-oxo-propyl]-5-ethyl-imidazolidine-2,4-dione] | > 20000 | > 4000 | 
CC1CN(C(=O)CCC2(c3cccnc3)NC(=O)NC2=O)CCN1c1cc(Cl)cc(Cl)c1 (centres unmarked) [compound 127, 5-[3-[4-(3,5-dichlorophenyl)-3-methyl-piperazin-1-yl]-3-oxo-propyl]-5-(3-pyridyl)imidazolidine-2,4-dione] | > 20000 | > 4000 | 
CC1(CCC(=O)N2CCN(c3cc(F)cc(F)c3)CC2)NC(=O)NC1=O (centres unmarked) [compound 140, 5-[3-[4-(3,5-difluorophenyl)piperazin-1-yl]-3-oxo-propyl]-5-methyl-imidazolidine-2,4-dione] | > 4000 | > 20000 | 
O=C1NC(=O)C(CCC(=O)N2CCN(c3cccc(Cl)c3)CC2)(CN2CCOCC2)N1 (centres unmarked) [compound 155, 5-[3-[4-(3-chlorophenyl)piperazin-1-yl]-3-oxo-propyl]-5-(morpholinomethyl)imidazolidine-2,4-dione] | > 20000 | > 20000 | 1250
C[C@H]1CN(C(=O)CCC2(C)NC(=O)NC2=O)CCN1c1ccc(F)c(F)c1 (stereo partly drawn) [compound 165, 5-[3-[(3S)-4-(3,4-difluorophenyl)-3-methyl-piperazin-1-yl]-3-oxo-propyl]-5-methyl-imidazolidine-2,4-dione] | > 20000 | > 20000 | 207
C[C@H]1CN(C(=O)CCC2(C)NC(=O)NC2=O)CCN1c1ccc(F)c(Cl)c1 (stereo partly drawn) [compound 166, 5-[3-[(3S)-4-(3-chloro-4-fluoro-phenyl)-3-methyl-piperazin-1-yl]-3-oxo-propyl]-5-methyl-imidazolidine-2,4-dione] | > 20000 | > 20000 | 264
NCC1(CCC(=O)N2CCN(c3cccc(Cl)c3)CC2)NC(=O)NC1=O (centres unmarked) [compound 171, 5-(aminomethyl)-5-[3-[4-(3-chlorophenyl)piperazin-1-yl]-3-oxo-propyl]imidazolidine-2,4-dione] | > 4000 | > 20000 | 305
O=C1NC(=O)C(CC(O)C(=O)N2CCN(c3cc(Cl)cc(Cl)c3)CC2)(C2CC2)N1 (centres unmarked) [compound 201, 5-cyclopropyl-5-[3-[4-(3,5-dichlorophenyl)piperazin-1-yl]-2-hydroxy-3-oxo-propyl]imidazolidine-2,4-dione] | > 20000 | > 20000 | 307
CC1(CC(CO)C(=O)N2CCN(c3cc(Cl)cc(Cl)c3)CC2)NC(=O)NC1=O (centres unmarked) [compound 220, 5-[3-[4-(3,5-dichlorophenyl)piperazin-1-yl]-2-(hydroxymethyl)-3-oxo-propyl]-5-methyl-imidazolidine-2,4-dione] | > 4000 | 245 | 18
COCC1(CC(C)C(=O)N2CCN(c3cc(Cl)cc(Cl)c3)CC2)NC(=O)NC1=O (centres unmarked) [compound 222, 5-[3-[4-(3,5-dichlorophenyl)piperazin-1-yl]-2-methyl-3-oxo-propyl]-5-(methoxymethyl)imidazolidine-2,4-dione] | > 4000 | 337 | 20
COCC1(CC(C)C(=O)N2CCN(c3cc(F)cc(F)c3)[C@@H](C)C2)NC(=O)NC1=O (stereo partly drawn) [compound 225, 5-[3-[(3S)-4-(3,5-difluorophenyl)-3-methyl-piperazin-1-yl]-2-methyl-3-oxo-propyl]-5-(methoxymethyl)imidazolidine-2,4-dione] | 3940 | > 20000 | 28
CC(CC1(c2ccccn2)NC(=O)NC1=O)C(=O)N1CCN(c2cc(Cl)cc(Cl)c2)CC1 (centres unmarked) [compound 231, 5-[3-[4-(3,5-dichlorophenyl)piperazin-1-yl]-2-methyl-3-oxo-propyl]-5-(2-pyridyl)imidazolidine-2,4-dione] | 766 | 106 | 20
O=C1NC(=O)C(CCC(=O)N2CCN(c3cc(Cl)cc(Cl)c3)CC2)(c2ccccn2)N1 (centres unmarked) [compound 407, 5-(3-(4-(3,5-dichlorophenyl)piperazin-1-yl)-3-oxopropyl)-5-(pyridin-2-yl)imidazolidine-2,4-dione] | > 20000 | 479 | 
COCC1(CC(C)C(=O)N2CCN(c3cc(Cl)cc(Cl)c3C)[C@@H](C)C2)NC(=O)NC1=O (stereo partly drawn) [compound 430, 5-(3-((S)-4-(3,5-dichloro-2-methylphenyl)-3-methylpiperazin-1-yl)-2-methyl-3-oxopropyl)-5-(methoxymethyl)imidazolidine-2,4-dione] | > 20000 |  | 
C[C@H]1CN(C(=O)CCC2(c3ccccn3)NC(=O)NC2=O)CCN1c1ccc(Cl)c(Cl)c1 (stereo partly drawn) [compound 458, 5-[3-[(3S)-4-(3,4-dichlorophenyl)-3-methyl-piperazin-1-yl]-3-oxo-propyl]-5-(2-pyridyl)imidazolidine-2,4-dione] |  | 2380 | 21
C[C@H]1CN(C(=O)CCC2(c3ccccn3)NC(=O)NC2=O)CCN1c1cc(Cl)cc(Cl)c1 (stereo partly drawn) [compound 459, 5-[3-[(3S)-4-(3,5-dichlorophenyl)-3-methyl-piperazin-1-yl]-3-oxo-propyl]-5-(2-pyridyl)imidazolidine-2,4-dione] |  | 1740 | 46
C[C@H]1CN(C(=O)CCC2(c3cnccn3)NC(=O)NC2=O)CCN1c1ccc(Cl)c(Cl)c1 (stereo partly drawn) [compound 460, 5-[3-[(3S)-4-(3,4-dichlorophenyl)-3-methyl-piperazin-1-yl]-3-oxo-propyl]-5-pyrazin-2-yl-imidazolidine-2,4-dione] |  | > 4000 | 30
C[C@H]1CN(C(=O)CCC2(c3cnccn3)NC(=O)NC2=O)CCN1c1cc(Cl)cc(Cl)c1 (stereo partly drawn) [compound 461, 5-[3-[(3S)-4-(3,5-dichlorophenyl)-3-methyl-piperazin-1-yl]-3-oxo-propyl]-5-pyrazin-2-yl-imidazolidine-2,4-dione] |  | 2540 | 39
C[C@H]1CN(C(=O)CCC2(c3ncccn3)NC(=O)NC2=O)CCN1c1ccc(Cl)c(Cl)c1 (stereo partly drawn) [compound 462, 5-[3-[(3S)-4-(3,4-dichlorophenyl)-3-methyl-piperazin-1-yl]-3-oxo-propyl]-5-pyrimidin-2-yl-imidazolidine-2,4-dione] |  | > 4000 | 22
C[C@H]1CN(C(=O)CCC2(c3ncccn3)NC(=O)NC2=O)CCN1c1cc(F)cc(Cl)c1 (stereo partly drawn) [compound 463, 5-[3-[(3S)-4-(3-chloro-5-fluoro-phenyl)-3-methyl-piperazin-1-yl]-3-oxo-propyl]-5-pyrimidin-2-yl-imidazolidine-2,4-dione] |  | > 4000 | 46
Cc1ccc(C2(CCC(=O)N3CCN(c4ccc(Cl)c(Cl)c4)[C@@H](C)C3)NC(=O)NC2=O)cn1 (stereo partly drawn) [compound 464, 5-[3-[(3S)-4-(3,4-dichlorophenyl)-3-methyl-piperazin-1-yl]-3-oxo-propyl]-5-(6-methyl-3-pyridyl)imidazolidine-2,4-dione] |  | > 4000 | 26
C[C@H]1CN(C(=O)CCC2(c3cocn3)NC(=O)NC2=O)CCN1c1cc(Cl)cc(Cl)c1 (stereo partly drawn) [compound 465, 5-[3-[(3S)-4-(3,5-dichlorophenyl)-3-methyl-piperazin-1-yl]-3-oxo-propyl]-5-oxazol-4-yl-imidazolidine-2,4-dione] |  | 3500 | 62
C[C@H]1CN(C(=O)CCC2(c3cn(C)cn3)NC(=O)NC2=O)CCN1c1cc(Cl)cc(Cl)c1 (stereo partly drawn) [compound 466, 5-[3-[(3S)-4-(3,5-dichlorophenyl)-3-methyl-piperazin-1-yl]-3-oxo-propyl]-5-(1-methylimidazol-4-yl)imidazolidine-2,4-dione] |  | 2640 | 55
C[C@H]1CN(C(=O)CCC2(c3cn(C)cn3)NC(=O)NC2=O)CCN1c1ccc(F)c(Cl)c1 (stereo partly drawn) [compound 467, 5-[3-[(3S)-4-(3-chloro-4-fluoro-phenyl)-3-methyl-piperazin-1-yl]-3-oxo-propyl]-5-(1-methylimidazol-4-yl)imidazolidine-2,4-dione] |  | > 4000 | 42
Cc1cc(N2CCN(C(=O)CC[C@@]3(C)NC(=O)NC3=O)C[C@@H]2C)cc(C)c1Cl [compound 470, (5R)-5-[3-[(3S)-4-(4-chloro-3,5-dimethyl-phenyl)-3-methyl-piperazin-1-yl]-3-oxo-propyl]-5-methyl-imidazolidine-2,4-dione] |  | 2930 | 383
C[C@H]1CN(C(=O)CC[C@@]2(C)NC(=O)NC2=O)CCN1c1ccc(Cl)c(C(F)(F)F)c1 [compound 472, (5R)-5-[3-[(3S)-4-[4-chloro-3-(trifluoromethyl)phenyl]-3-methyl-piperazin-1-yl]-3-oxo-propyl]-5-methyl-imidazolidine-2,4-dione] |  | > 4000 | 899
COCC1(CC(C)C(=O)N2CCN(c3ccc(Cl)c(C(F)(F)F)c3)[C@@H](C)C2)NC(=O)NC1=O (stereo partly drawn) [compound 478, 5-{3-[(S)-4-(4-Chloro-3-trifluoromethyl-phenyl)-3-methyl-piperazin-1-yl]-2-methyl-3-oxo-propyl}-5-methoxymethyl-imidazolidine-2,4-dione] |  | > 4000 | 61

From patent US9926281B2 (priority 2014, dated 2018)
